Tests used:
[1] = molecular target: Flpin-293-PDE4B2 cells (Homo sapiens, UniProt Q07343); test: cell-based; settings: for inhibition at 0.001 µM: read-out: Cell Inhibition % @1 nM, 1 nM, Flpin-293-PDE4B2 cells; for inhibition at 0.01 µM: read-out: Cell Inhibition % @10 nM, 10 nM, Flpin-293-PDE4B2 cells; for inhibition at 0.1 µM: read-out: Cell Inhibition % @100 nM, 100 nM, Flpin-293-PDE4B2 cells
Protocol: All compounds were dissolved in DMSO into 10 mM or 20 mM stock solutions. The compound to be tested was diluted with DMSO with a 3-fold gradient. […] 40 nL/well of the compound or a DMSO control was transferred to a 384-well plate by using Echo 550 instrument. […] The plate was incubated at 37° C. for 30 minutes. Eu-cAMP tracer and Ulight-anti-cAMP were frozen and thawed and diluted in a lysis buffer. 10 of μl Eu-cAMP tracer was added to an experimental well, and 10 μl of Ulight-anti-cAMP was added to the experimental well. The reaction plate was centrifuged at 200 g at room temperature for 30 s and then left to stand at 25° C. for 1 h, and data was then collected by Envision. Inhibition %=100−(Signal compound−SignalAve positive control)/(SignalAve negative control−SignalAve positive control)×100.

[2] = molecular target: PDE4B2 (Homo sapiens, UniProt Q07343)
PDE4B2, sequence (Q07343 1-564 isoform Q07343-2, species assumed): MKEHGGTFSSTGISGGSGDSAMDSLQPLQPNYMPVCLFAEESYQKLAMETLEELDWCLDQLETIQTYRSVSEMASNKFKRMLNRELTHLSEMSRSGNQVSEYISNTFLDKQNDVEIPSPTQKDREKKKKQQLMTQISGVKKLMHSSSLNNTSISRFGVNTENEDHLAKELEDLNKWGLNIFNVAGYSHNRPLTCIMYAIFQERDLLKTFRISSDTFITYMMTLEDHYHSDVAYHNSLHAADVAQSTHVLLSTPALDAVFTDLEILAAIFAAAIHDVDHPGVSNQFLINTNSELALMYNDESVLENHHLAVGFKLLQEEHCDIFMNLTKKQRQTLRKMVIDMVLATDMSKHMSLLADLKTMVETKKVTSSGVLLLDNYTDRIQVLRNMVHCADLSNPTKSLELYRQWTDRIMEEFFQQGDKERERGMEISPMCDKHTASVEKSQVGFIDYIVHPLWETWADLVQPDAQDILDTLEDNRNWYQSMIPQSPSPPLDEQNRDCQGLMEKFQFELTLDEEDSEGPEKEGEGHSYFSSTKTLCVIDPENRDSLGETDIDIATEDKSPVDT
Protocol: All compounds were dissolved in DMSO into 10 mM or 20 mM stock solutions. The compound to be tested was diluted with DMSO in a 3-fold gradient. 20 nL/well of the compound or a DMSO control was transferred to a 384-well plate by using Echo 550 instrument. The plate was sealed with a membrane and centrifuged for 1 minute. A 2× enzyme solution was prepared with an assay buffer, and 2 uL/well of the 2× enzyme solution was added, followed by equilibration at room temperature for 10 minutes. A 2× Cyclic-3′,5′-AMP substrate solution was prepared with an assay buffer, and 2 uL/well of the 2× substrate solution was added, followed by incubation at room temperature for 60 minutes. 4 μL of AMP-glo reagent was added, followed by incubation at room temperature for 60 minutes. 8 ul of an AMP detection solution was added, followed by incubation at room temperature for 60 minutes. An RLU value was read on Envision 2105 plate reader. The RLU value represents the concentration of the product AMP. Inhibition rate %=(1−(RLUpositive control−RLUcomnpound)/(RLUpositive control−RLUnegative control))*100. The IC50 value was then calculated by Graphpad 8.0 software using Y=Bottom+(Top−Bottom)/(1+10^((LogIC50−X)*HillSlope)).

Flpin-293-PDE4B2 cells, sequence (Q07343 1-564 isoform Q07343-2): as the sequence (Q07343 1-564 isoform Q07343-2, species assumed) above

| Molecule | inhibition at 0.001 µM [1] | inhibition at 0.01 µM [1] | inhibition at 0.1 µM [1] | IC50 ([2]; read-out: PDE4B2 IC50, enzyme assay) | PDE4B2 Enzyme Inhibition % @10 nM ([2]; 10 nM) | PDE4B2 Enzyme Inhibition % @100 nM ([2]; 100 nM) |
| --- | --- | --- | --- | --- | --- | --- |
| [O-][S+]1CCc2nc(N3CCc4cc(N5CCCC5)ncc4C3)nc(NC3(CO)CCC3)c21 (stereo not shown) [Compound 183] | 12.8% | 78.5% | 99.9% | 0.413 nM | – | – |
| N#CCc1ccc(Nc2nc(N3CCc4cc(Cl)ccc4C3)nc3c2[S+]([O-])CC3)cc1 (stereo not shown) [Compound 138] | 4.95% | 27.9% | 89.6% | – | – | – |
| C[C@H]1c2ccc(N3CCCC3)cc2CCN1c1nc2c(c(NC3(CO)CCOC3)n1)[S+]([O-])CC2 (stereo partly shown) [Compound 211] | 12.5% | 50.1% | 98.4% | – | – | – |
| [O-][S+]1CCc2nc(N3CCc4nc(Br)sc4C3)nc(NC3(CO)CCC3)c21 (stereo not shown) [Compound 63] | – | 31.1% | 76.6% | – | – | – |
| [O-][S+]1CCc2nc(N3CC[C@@H]4c5ccc(Br)cc5OC[C@H]4C3)nc(NC3(CO)CCC3)c21 (stereo partly shown) [Compound 115] | 7.72% | 39.7% | 97.7% | – | – | – |
| (R)-4-((1-(hydroxymethyl)cyclobutyl)amino)-2-(6-(1-methyl-2,5-dihydro-1H-pyrrol-3-yl)-3,4-dihydroisoquinolin-2(1H)-yl)-6,7-dihydrothieno[3,2-d]pyrimidine 5-oxide [Compound 169] | – | – | – | – | 20.43% | 78.77% |
| [O-][S+]1CCc2nc(N3CCC4=C(COc5ccccc54)C3)nc(NC3(CO)CCC3)c21 (stereo not shown) [Compound 97] | 1.66% | 17.4% | 86.5% | – | – | – |
| [O-][S+]1CCc2nc(N3CCc4c(nn5cc(F)ccc45)C3)nc(NC3(CO)CCC3)c21 (stereo not shown) [Compound 32] | 23.5% | 74.2% | 97.7% | – | – | – |
| CC(=O)N1CC[C@H](Nc2nc(N3CCc4cc(N5CCCC5)ccc4[C@@H]3C)nc3c2[S+]([O-])CC3)C1 (stereo partly shown) [Compound 222] | 41.5% | 96.2% | 101% | – | – | – |
| C[C@H]1c2ccc(N3CCCC3)cc2CCN1c1nc2c(c(Nc3cnn(CCC#N)c3)n1)[S+]([O-])CC2 (stereo partly shown) [Compound 220] | 13.8% | 73.4% | 100% | – | – | – |
| C[C@H]1c2ccc(N3CCCC3)cc2CCN1c1nc2c(c(N[C@H]3CCC(=O)N(C)C3)n1)[S+]([O-])CC2 (stereo partly shown) [Compound 202] | 52.5% | 99.4% | 101% | – | – | – |
| Nc1nc2cc(Cl)ccc2c2c1CN(c1nc3c(c(NC4(CO)CCC4)n1)[S+]([O-])CC3)CC2 (stereo not shown) [Compound 102] | -0.08% | 35.9% | 95.5% | – | – | – |
| [O-][S+]1CCc2nc(N3CCc4cc(N5CCCC5)cc(F)c4C3)nc(NC3(CO)CCC3)c21 (stereo not shown) [Compound 182] | 3.68% | 40.6% | 98% | – | – | – |
| COc1ccc2c(c1)OC[C@H]1CN(c3nc4c(c(NC5(CO)CCC5)n3)[S+]([O-])CC4)CC[C@H]21 (stereo partly shown) [Compound 110] | 19% | 76.1% | 100% | – | – | – |
| C[C@H]1c2ccc(N3CCCC3)cc2CCN1c1nc2c(c(NCc3cnn(C)c3)n1)[S+]([O-])CC2 (stereo partly shown) [Compound 206] | 26.9% | 89.7% | 100% | – | – | – |
| [O-][S+]1CCc2nc(N3CCc4cnc(Cl)cc4C3)nc(NC3(CO)CCC3)c21 (stereo not shown) [Compound 79] | 1.99% | 11.2% | 59.4% | – | – | – |
| NC(=O)Nc1ccc(Nc2nc(N3CCc4cc(Cl)ccc4C3)nc3c2[S+]([O-])CC3)cc1 (stereo not shown) [Compound 137] | 4.94% | 21.8% | 83.8% | – | – | – |
| Cn1c2c(c3ccc(Cl)cc3c1=O)CCN(c1nc3c(c(NC4(CO)CCC4)n1)[S+]([O-])CC3)C2 (stereo not shown) [Compound 98] | -1.71% | 46.7% | 95.8% | – | – | – |
| [O-][S+]1CCc2nc(N3CCc4cc(N5CC(F)(F)C5)ccc4C3)nc(NC3(CO)CCC3)c21 (stereo not shown) [Compound 88] | 3.67% | 28.8% | 93.5% | – | – | – |
| [O-][S+]1CCc2nc(N3CCc4cc(-c5cnco5)ccc4C3)nc(NC3(CO)CCC3)c21 (stereo not shown) [Compound 85] | 41.7% | 97% | 101% | – | – | – |

| Molecule | inhibition at 0.001 µM [1] | inhibition at 0.01 µM [1] | inhibition at 0.1 µM [1] | IC50 ([2]; read-out: PDE4B2 IC50, enzyme assay) | PDE4B2 Enzyme Inhibition % @10 nM ([2]; 10 nM) | PDE4B2 Enzyme Inhibition % @100 nM ([2]; 100 nM) |
| --- | --- | --- | --- | --- | --- | --- |
| [O-][S+]1CCc2nc(N3CC[C@@H]4c5ccc(F)cc5OC[C@H]4C3)nc(NC3(CO)CCC3)c21 (stereo partly shown) [Compound 109] | 17.7% | 65.4% | 97.8% | – | – | – |
| C[C@H]1c2ccc(N3CCC(F)(F)C3)cc2CCN1c1nc2c(c(NC3(CO)CCC3)n1)[S+]([O-])CC2 (stereo partly shown) [Compound 224] | 10.7% | 44.4% | 98.9% | – | – | – |
| O=C(O)Cc1ccc(Nc2nc(N3CCc4cc(Cl)ccc4C3)nc3c2[S@+]([O-])CC3)cc1 [Compound 129] | 6.93% | 39.6% | 72.2% | – | – | – |
| [O-][S+]1CCc2nc(N3Cc4ccc(Br)cc4C3)nc(NC3(CO)CCC3)c21 (stereo not shown) [Compound 59] | – | 42.6% | 85.8% | – | – | – |
| O=C1CCCN1c1ccc2c(c1)CCN(c1nc3c(c(NC4(CO)CCC4)n1)[S+]([O-])CC3)C2 (stereo not shown) [Compound 87] | 2.9% | 31.3% | 89.1% | – | – | – |
| COc1ccc2sc3c(c2c1)CCN(c1nc2c(c(NC4(CO)CCC4)n1)[S+]([O-])CC2)C3 (stereo not shown) [Compound 82] | 19.1% | 77.5% | 99.9% | – | – | – |
| [O-][S+]1CCc2nc(N3CCc4cc(Cl)c(F)cc4C3)nc(NC3(CO)CCC3)c21 (stereo not shown) [Compound 96] | -2.7% | 15.7% | 84.8% | – | – | – |
| [O-][S+]1CCc2nc(N3CCc4cc(I)ccc4C3)nc(NC3(CO)CCC3)c21 (stereo not shown) [Compound 67] | 14.2% | 47.4% | 96.4% | – | – | – |
| COC[C@H]1CCCN1c1ccc2c(c1)CCN(c1nc3c(c(NC4(CO)CCC4)n1)[S+]([O-])CC3)C2 (stereo partly shown) [Compound 146] | 14.8% | 85.1% | 101% | – | – | – |
| O=C(O)Cc1ccc(Nc2nc(N3CCc4cc(Cl)ccc4C3)nc3c2[S@@+]([O-])CC3)cc1 [Compound 128] | -0.97% | 6.68% | 25.4% | – | – | – |
| [O-][S+]1CCc2nc(N3CCc4cc(C(F)(F)F)ccc4C3)nc(NC3(CO)CCC3)c21 (stereo not shown) [Compound 52] | – | 81.8% | 99.5% | – | – | – |
| [O-][S+]1CCc2nc(N3CC[C@@H]4c5cccc(Cl)c5OC[C@H]4C3)nc(NC3(CO)CCC3)c21 (stereo partly shown) [Compound 107] | 2.82% | 52.5% | 98.1% | – | – | – |
| COC[C@@H]1CCCN1c1ccc2c(c1)CCN(c1nc3c(c(NC4(CO)CCC4)n1)[S+]([O-])CC3)C2 (stereo partly shown) [Compound 147] | 8.67% | 32.2% | 94.4% | – | – | – |
| C[C@H]1c2ccc(N3CCCC3)cc2CCN1c1nc2c(c(Nc3cn(C)nn3)n1)[S+]([O-])CC2 (stereo partly shown) [Compound 214] | 1.8% | 15.1% | 64.1% | – | – | – |
| C[C@H]1c2ccc(N3CCCC3)cc2CCN1c1nc2c(c(NC3CS(=O)(=O)C3)n1)[S+]([O-])CC2 (stereo partly shown) [Compound 204] | 23.1% | 87.2% | 100% | – | – | – |
| COc1nc2c(c3ccc(Cl)cc13)CCN(c1nc3c(c(NC4(CO)CCC4)n1)[S+]([O-])CC3)C2 (stereo not shown) [Compound 99] | 4.18% | 43.7% | 96.5% | – | – | – |
| [O-][S+]1CCc2nc(N3CCc4ccc(Cl)cc4C3)nc(NC3(CO)CCC3)c21 (stereo not shown) [Compound 20] | – | 14.2% | 69.9% | – | – | – |
| [O-][S+]1CCc2nc(N3CCc4ccc(Cl)cc4CC3)nc(NC3(CO)CCC3)c21 (stereo not shown) [Compound 34] | – | 14% | 62% | – | – | – |
| Cn1cc(Nc2nc(N3CCc4cc(N5CC6CC6C5)ccc4C3)nc3c2[S+]([O-])CC3)cn1 (stereo not shown) [Compound 223] | 11.3% | 73.7% | 99.2% | – | – | – |
